From US20260265265A1, “NOVEL BENZIMIDAZOLONE DERIVATIVE COMPOUND AS AUTOTAXIN INHIBITOR” (LG CHEM, LTD., priority 2023, published 2026)

Target: T1, Recombinant Human ENPP-2/Autotaxin (Homo sapiens, UniProt Q13822)
T1 construct: purchased R&D systems 5255-EN
Test: LysoPLD activity measurement (autotaxin enzyme inhibition, choline release, TOOS reagent)
Type: biochemical
Details: LysoPLD inhibitory activity; substrate 14:0 LysoPC; absorbance at 555 nm
Outline: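 Autotaxin lysoPLD activity was read as choline released from 14:0 LysoPC, detected by TOOS reagent absorbance. Compound was preincubated 30 min, then substrate diluted to 300 μM was added and the reaction ran 90 minutes at 37° C. Controls contained 1% DMSO.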

Structure (SMILES)	IC50
O=C(O)c1cccc(Cn2c(=O)n(-c3ccc(N4CCC(F)(F)C4)nc3)c3cc(Cl)ccc32)c1F [Example 166, 3-((5-chloro-3-(6-(3,3-difluoropyrrolidine-1-yl)pyridin-3-yl)-2-oxo-2,3-dihydro-1H-benzo[d]imidazol-1-yl)methyl)-2-fluorobenzoic acid]	0.1 to 1 µM
Cc1ccc2c(n1)n(-c1ccc(N(C)C)cc1)c(=O)n2Cc1cccc(C(=O)O)c1 [Example 168, 3-((3-(4-(dimethylamino)phenyl)-5-methyl-2-oxo-2,3-dihydro-1H-imidazo[4,5-b]pyridin-1-yl)methyl)benzoic acid]	0.1 to 1 µM
O=C(O)c1cccc(Cn2c(=O)n(-c3ccc(C(=O)N4CCCC4)cc3)c3cc(Cl)cnc32)c1 [Example 169, 3-((6-chloro-2-oxo-1-(4-(pyrrolidine-1-carbonyl)phenyl)-1,2-dihydro-3H-imidazo[4,5-b]pyridin-3-yl)methyl)benzoic acid]	0.01 to 0.1 µM
O=C(O)c1cccc(C2(n3c(=O)n(-c4ccc(CC(=O)N5CCCC5)cc4)c4cc(Cl)ccc43)CC2)c1 [Example 170, 3-(1-(5-chloro-2-oxo-3-(4-(2-oxo-2-(pyrrolidin-1-yl)ethyl)phenyl)-2,3-dihydro-1H-benzo[d]imidazol-1-yl)cyclopropyl)benzoic acid]	< 0.01 µM
O=C(O)c1cccc(C2(n3c(=O)n(-c4ccc(CC(=O)N5CCCCC5)cc4)c4cc(Cl)ccc43)CC2)c1 [Example 171, 3-(1-(5-chloro-2-oxo-3-(4-(2-oxo-2-(piperidin-1-yl)ethyl)phenyl)-2,3-dihydro-1H-benzo[d]imidazol-1-yl)cyclopropyl)benzoic acid]	< 0.01 µM
O=C(O)c1cccc(C2(n3c(=O)n(-c4ccc(CC(=O)N5CCOCC5)cc4)c4cc(Cl)ccc43)CC2)c1 [Example 172, 3-(1-(5-chloro-3-(4-(2-morpholino-2-oxoethyl)phenyl)-2-oxo-2,3-dihydro-1H-benzo[d]imidazol-1-yl)cyclopropyl)benzoic acid]	0.01 to 0.1 µM
O=C(O)c1cccc(C2(n3c(=O)n(-c4ccc(CC(=O)N5CCC(F)(F)CC5)cc4)c4cc(Cl)ccc43)CC2)c1 [Example 173, 3-(1-(5-chloro-3-(4-(2-(4,4-difluoropiperidin-1-yl)-2-oxoethyl)phenyl)-2-oxo-2,3-dihydro-1H-benzo[d]imidazol-1-yl)cyclopropyl)benzoic acid]	0.01 to 0.1 µM
O=C(O)c1cccc(C2(n3c(=O)n(-c4ccc(CC(=O)N5CC(O)C5)cc4)c4cc(Cl)ccc43)CC2)c1 [Example 174, 3-(1-(5-chloro-3-(4-(2-(3-hydroxyazetidin-1-yl)-2-oxoethyl)phenyl)-2-oxo-2,3-dihydro-1H-benzo[d]imidazol-1-yl)cyclopropyl)benzoic acid]	< 0.01 µM
C[C@@H]1CN(C(=O)Cc2ccc(-n3c(=O)n(C4(c5cccc(C(=O)O)c5)CC4)c4ccc(Cl)cc43)cc2)CCO1 [Example 175, (R)-3-(1-(5-chloro-3-(4-(2-(2-methylmorpholino)-2-oxoethyl)phenyl)-2-oxo-2,3-dihydro-1H-benzo[d]imidazol-1-yl)cyclopropyl)benzoic acid]	< 0.01 µM
C[C@H]1CN(C(=O)Cc2ccc(-n3c(=O)n(C4(c5cccc(C(=O)O)c5)CC4)c4ccc(Cl)cc43)cc2)CCO1 [Example 176, (S)-3-(1-(5-chloro-3-(4-(2-(2-methylmorpholino)-2-oxoethyl)phenyl)-2-oxo-2,3-dihydro-1H-benzo[d]imidazol-1-yl)cyclopropyl)benzoic acid]	0.01 to 0.1 µM
C[C@H]1COCCN1C(=O)Cc1ccc(-n2c(=O)n(C3(c4cccc(C(=O)O)c4)CC3)c3ccc(Cl)cc32)cc1 [Example 177, (S)-3-(1-(5-chloro-3-(4-(2-(3-methylmorpholino)-2-oxoethyl)phenyl)-2-oxo-2,3-dihydro-1H-benzo[d]imidazol-1-yl)cyclopropyl)benzoic acid]	0.01 to 0.1 µM
